The values below are quoted from earlier work in patent US20150086650A1 (priority 2012, published 2015).

The conditions of data set [1]: rats.

Molecules are shown by their SMILES.

In the case of `CO/C=C(/C(=O)OC)c1ccccc1Oc1cc(Oc2ccccc2C#N)ncn1` [Azoxystrobin], the inhalation toxicity classification result is listed as “toxic by inhalation”. The “acute oral LD50” value in data set [1] is recorded as “more than 5,000 mg/kg”.
